This passage reports melting point results from a melting point compilation (Tetko et al.; mined from patent text by program, amines drawn as free bases though some values may be those of a salt).

Molecule `CN(CCCO)C(=O)c1c2ccc(Cl)cc2c(-c2ccccc2)n1C` had a melting point of 85 to 88 °C.

The molecule `CCOC(=O)c1cc(CCCOc2c(C)cc(-c3noc(C)n3)cc2C)on1` showed a melting point of 95 to 96 °C.

`Nc1c(Cl)cc(C(O)CNCCCCCCOCCCCc2ncccn2)cc1Cl` (centres undefined) had a melting point of 77 to 79 °C.

Turning to `CS(=O)(=O)OC1=C(C(=O)O)N2C(=O)[C@@H](NC(=O)Cc3ccccc3)[C@H]2CN1` (racemic), the melting point lay within 115 to 117 °C.

For `COC(=O)CCC/C=C(/c1cc(C)c2onc(OC)c2c1)c1cc(C)c2oc(=O)n(C)c2c1`, the melting point lay within 54 to 55 °C.

`O=C(O)c1ncsc1-c1cc(F)cc(F)c1` came in with a melting point of 200 °C.

Molecule `COCc1cc(C)nc2nc(S(=O)(=O)Nc3c(C)cccc3Cl)nn12` displayed a melting point of 227 °C.

For `O=C(Nc1ccc(Oc2ccc(Cl)cc2Cl)nc1)N1CCc2ccccc2CC1`, the melting point was in the range of 154 to 155 °C.

`O=[N+]([O-])C=Cc1cc(Br)ccc1O` registered a melting point of 165 to 167 °C.

With `CCCCCn1cc(CCCC)n(Cc2ccc(-c3ccccc3-c3nnn[nH]3)nc2)c1=O`, the melting point fell in the range of 162 to 164 °C.

`O=[N+]([O-])c1c(OS(=O)(=O)C(F)(F)F)nc2ccccc2c1OS(=O)(=O)C(F)(F)F`: the melting point fell in the range of 74.5 to 76 °C.

`COC(=O)C1(C(F)(F)CCCCCOc2ccc(Cl)cc2)CO1` (centres undefined) showed a melting point of 54 to 55 °C.

As for `CCc1nc2c(cnn2CC)c(NC2CCOCC2)c1CNC(=O)c1cccc(C(=O)NCc2cc(Cl)cc(-c3cccc(CN4CC(C)NC(C)C4)c3)c2)c1` (centres undefined), the melting point lay in the range of 112 to 114 °C.

On to `Cc1nc(N2CCC(Cc3ccc(OC(F)(F)F)cc3)C2=O)sc1C(=O)NCc1cccnc1` (centres undefined), for which the melting point lay within 158 to 160 °C.

For `O=C(O)c1ccc(F)cc1Nc1ccc(I)cc1Cl`, the melting point was in the range of 238 to 239 °C.

For `COc1ccc(/C=C/CCCCOc2ccc(C(=O)CCCC(=O)O)cc2CCC(=O)O)cc1`, the melting point is 113 to 114 °C.

In turn, `C=CCOC1CCC2C3CCC4CC(=O)CCC4(C)C3CCC12C` (centres undefined) showed a melting point of 122 to 124 °C.

Regarding `CC(C)OC(=O)Cn1c(=O)n(C)c(=O)n(-c2cc(N=c3sc(=S)n4n3CCCC4)c(F)cc2Cl)c1=O`, the melting point is 115 to 122 °C.

As to `C=CCC1CC(=O)N1C(C(=O)OCOC(=O)C(C)(C)C)=P(c1ccccc1)(c1ccccc1)c1ccccc1` (centres undefined), the melting point was 140 to 142 °C.

`BrCc1ccc2ncoc2c1` had a melting point of 52 to 56 °C.

Turning to `O=C(Nc1cccc(-n2nc(C(F)(F)F)cc2C(F)(F)F)c1)c1ccc(F)cc1F`, the melting point fell in the range of 133 to 134 °C.

Molecule `N#CCCNC(=O)c1n[nH]cc1NC(=O)C1CCCC1` had a melting point of 180 to 181 °C.

For `CCOC(=O)C1CC12CCN(c1ccc(N3CC(CNC(C)=O)OC3=O)cc1F)CC2` (centres undefined), the melting point lay in the range of 104 to 106 °C.

In turn, `COc1cc(N)c(Cl)cc1C(=O)NCC1CCN(CCCCSc2ccccc2)CC1` came in with a melting point of 102 to 105 °C.

`COC(=O)C1=Cc2cc(-c3ccc(C)cc3)ccc2S(=O)(=O)CC1` yielded a melting point of 203 to 204 °C.

For `CC(Oc1ccc(-c2ccc(CC(=O)NC3CC3)cc2)cc1)C(O)CCc1cccnc1` (centres undefined), the melting point fell in the range of 117 to 118 °C.

Consider `CCCCOC(=O)c1ccc(NC2=NC3=NC(Nc4ccc(C(=O)OCCCC)cc4)=NC4=NC(Nc5ccc(C(=O)OCCCC)cc5)=NC(=N2)N34)cc1`, for which the melting point was 289 to 290 °C.

`CC(=O)c1ccccc1NC(C#N)c1c(Cl)cccc1Cl` (centres undefined) displayed a melting point of 179 °C.

Molecule `CCOC(=O)N1CCC(c2ccc3nc(-c4ccc(S(C)(=O)=O)cc4F)oc3c2)CC1` had a melting point of 154 to 158 °C.

With `CCN1C(=O)C(C)(C)C(=O)Nc2cc(C#N)ccc21`, the melting point lay within 215 to 218 °C.

Take `N#CCCc1cccc(-c2ccc3cnc(Nc4ccc5c(c4)CCC(N4CCOCC4)CC5)nn23)c1` (centres undefined): the melting point was 184 to 186 °C.

Consider `CC1(C)OC(=O)Nc2c(Br)cc(-c3ccc(F)c(Cl)c3)cc21`, for which the melting point is 194 to 195 °C.

Regarding `CCCCCCCCCCCCCCCc1cccc(OCC(=O)O)c1`, the melting point is 96 °C.

In turn, `N#Cc1ccc2oc(CCCc3cc4cc(C#N)ccc4o3)cc2c1` had a melting point of 153 to 154 °C.

`COc1ccc(N2CCN(c3ccc([N+](=O)[O-])cn3)CC2)cc1` gave a melting point of 165 to 166 °C.

For the molecule `Nc1ccc2c(c1)C(=O)CC2`, the melting point was 168 to 171 °C.

Take `CC(C)(C)c1cc(N)n(-c2ccccc2)n1`: the melting point was in the range of 65 to 67 °C.

`COC(=O)CCc1cc(F)ccc1C(=O)CCCNC(C)=O`: the melting point was in the range of 39 to 40 °C.

In turn, `CCOc1cc(-c2nc3ccccc3[nH]2)n[nH]1` displayed a melting point of 217 to 220 °C.

In the case of `CC(C)CN1CCC(c2ccc(Br)cc2)CC1`, the melting point fell in the range of 36 to 37 °C.

In turn, `Cc1ccsc1C=C1C(=O)COC1=O` gave a melting point of 164 to 166 °C.

The molecule `CCCCCCc1cc2c(s1)-n1c(C)nnc1CN=C2c1cccc(C)c1C` gave a melting point of 103 to 105 °C.

`COc1ccc(-c2ncccc2O)cc1OC` had a melting point of 150 to 155 °C.

As for `C=C1CCC2C3CCc4cc(O)c(C=O)cc4C3CCC12C` (centres undefined), the melting point was in the range of 128 to 130 °C.

Turning to `Cc1cc2nc(OC(C)C)nc(-c3cccc(C(F)(F)F)c3)c2s1`, the melting point turned out to be 106 °C.

`COc1cc(Cl)ncn1` came in with a melting point of 32 to 34 °C.

`CCN(CC)CCNc1ccnc2cc(C(F)(F)F)ccc12`: the melting point fell in the range of 122 to 124 °C.

As for `COc1cc(C(C)C)c(NC(=O)CN2CCN(CCCSc3nc4ccccc4o3)CC2)c(C(C)C)c1`, the melting point is 129 to 130 °C.

On to `O=C(O)c1csc(-c2cccc(Cn3cc(C4c5ccccc5C=Cc5ccccc54)c(=S)[nH]c3=O)c2)n1`, for which the melting point was 165 °C.

The molecule `ClCCOc1ccc(Br)cc1` had a melting point of 54 to 56 °C.

In turn, `COc1cnc(CO)cc1OC` yielded a melting point of 122 to 124 °C.

Turning to `Cc1nnc(-c2ccc3occ(-c4ccc(CS(C)(=O)=O)cc4)c3c2)o1`, the melting point lay in the range of 250 to 251 °C.

The molecule `Cc1ccc(-c2c(NS(=O)(=O)c3ccc(C(C)(C)C)cc3)nc(S(C)(=O)=O)nc2OCCOCc2ccccc2)cc1` yielded a melting point of 129 to 130 °C.

`CN(C)C=Nc1ncc(C#Cc2ccc(Cl)cc2)c(Cl)n1` had a melting point of 195 to 197 °C.

`N#Cc1ccc(-c2ccc(C#N)c(Cn3cncn3)c2)cc1` had a melting point of 222 to 223 °C.

`O=C(O)CCCCC=C(c1ccccc1)c1ccccc1` had a melting point of 71.5 to 72.5 °C.

`Cc1nc(-c2ccccc2)sc1CNC(=O)c1ccnc(N2CCN(Cc3ccc(F)cc3)C2=O)c1` came in with a melting point of 182 to 184 °C.

As to `CCCCCCCCCCCCCCCCCCCc1cccc(N)c1`, the melting point lay within 50 to 51 °C.

Turning to `COc1cc(COc2nn(C)cc2C(C)=O)ccc1OCc1nc(-c2ccccc2)oc1C`, the melting point was 170 to 171 °C.

`Cc1cc(O)c(F)cc1Br` came in with a melting point of 44 to 46 °C.

In turn, `Cc1cc(C)cc(-c2cnn3c(-c4cccc(-c5nnn(CCN6CCCCC6)n5)c4)ccnc23)c1` registered a melting point of 66 °C.

The molecule `COc1c(N2CCC(N)C(C)C2)c(F)c(N)c2c(=O)c(C(=O)O)cn(C3CC3)c12` (centres undefined) yielded a melting point of 260 to 262 °C.

In turn, `CC/C=C(\c1ccccc1N1CCCCC1)C(C(N)=O)c1ccc(C(=O)O)cc1` (centres undefined) yielded a melting point of 174 to 175 °C.

`CCCC(=O)C(=CNc1ccccc1F)C(=O)OCC` showed a melting point of 60 to 62 °C.

`Cc1cc(=O)[nH]nc1-c1ccc2nc(C3CC3)n(Cc3ccc(-c4ccccc4-c4nnn[nH]4)cc3)c2c1`: the melting point turned out to be 225 °C.

Molecule `COC(=O)c1nc(Nc2cccc(C(F)(F)F)c2)sc1-c1ccccc1` had a melting point of 147 to 149 °C.

For `CC(=O)Oc1nc2c(N)ncnc2n1Cc1ccccc1`, the melting point was in the range of 189 to 191 °C.

Consider `CCc1cc(Nc2ccc(-c3ccccc3C#N)cc2)n2nccc2n1`, for which the melting point is 247 to 248 °C.

`CCCC(=O)N1N=C(c2ccc([N+](=O)[O-])cc2)c2cc(Cl)c(Cl)cc2CC1C` (centres undefined): the melting point lay in the range of 75 to 77 °C.

Take `Cc1cc(SCc2ccc(OCc3ccc(OC(F)(F)F)cc3)cc2)ccc1OCC(=O)O`: the melting point lay in the range of 141 to 142 °C.

The molecule `COc1ccc(C(=O)Nc2cccc(Cl)c2)cc1N` showed a melting point of 144 to 146 °C.

In turn, `COc1c(N2CCNCC2)c(F)c(N)c2c(=O)c(C(=O)O)cn(C3CC3)c12` displayed a melting point of 271 to 273 °C.

The molecule `BrCc1c(Br)csc1Br` returned a melting point of 89 to 90 °C.

In turn, `CN1C(=O)CC[C@]2(C)c3ccc(-c4cccc(NC(c5ccccc5)c5ccccc5)c4)cc3CC[C@@H]12` gave a melting point of 109 to 111 °C.

Regarding `COC(=O)c1ccc2[nH]c3ccccc3c2c1`, the melting point fell in the range of 180 to 181 °C.

Molecule `CCOC(=O)C(C#N)c1cn(C(=O)OCC)c2cc(Cl)ccc12` (centres undefined) returned a melting point of 126 to 128 °C.

`COc1ccc(C2=NN(c3ccc(C4=NNC(=O)CC4C)cc3)C(=O)C3CC=CCC23)cc1Cl` (centres undefined) had a melting point of 198 to 201 °C.

`COc1ccc(S(=O)(=O)N2CCc3cccc(-c4cccs4)c32)cc1` yielded a melting point of 128 to 129 °C.

As for `COc1cc(OC)nc(-c2ccc(-c3ccccc3S(=O)(=O)Nc3onc(C)c3C)cc2)n1`, the melting point was 83 to 93 °C.

Take `Cc1cc2c(c3ccc(=O)[nH]c13)OCC2C=O` (centres undefined): the melting point was 230 to 232 °C.

Regarding `NC(=O)CN1C(=O)CN2C(=O)CCC12` (centres undefined), the melting point was in the range of 182 to 185 °C.

As to `CCNc1cc(Nc2ccc(OC)cc2)ncn1`, the melting point fell in the range of 190 to 193 °C.

For `CCn1c(=O)c(C#N)c(N)c2ccc(C)nc21`, the melting point is greater than 300 °C.

As for `COc1ccc(/C(=C\C=C\C(=O)O)c2ccccc2OC)cc1`, the melting point was 159 to 161 °C.

The molecule `Cc1cc(N2C=CC(O)CC2)nn2cnnc12` (centres undefined) showed a melting point of 171 to 173 °C.

`COc1ccc(Cn2cc[nH]c2=S)cc1` had a melting point of 140 °C.

In turn, `Cc1ccc(-c2ccc3c(c2)C=C(C(=O)O)CO3)cc1` registered a melting point of 236 to 237 °C.

Molecule `O=C(Nc1cccc(OC2OC(CO)C(O)C2O)c1)C(F)(F)F` (centres undefined) came in with a melting point of 133 to 135 °C.

As for `Cn1cnc(-c2ccccc2)c1-c1ccncc1`, the melting point fell in the range of 161 to 162 °C.
